Tested on: 379773-124-R-J2-PDC spheroid viability
Test: Anticancer human tumor 379773-124-R-J2-PDC patient-derived endometrial carcinoma cell line growth inhibition [POLQ]
Conditions: spheroids with HUVEC and MSC; for IC50: curve of first compound; for viability, T/C: stronger effect = lower value; active = viability on the fitted dose curve at most 10% of control; inactive = the rest
Summary of the method: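 PDC + HUVEC + MSC complex spheroids; POLQ inhibitors ± partner drugs; top conc. at/near clinical Cmax, else 10 microM (SN-38 1 microM), half-log dilutions; 37 degrees C, 5% CO2.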

[1] = second compound 0.0316 µM, first compound 0.0316 µM
[2] = second compound 0.0316 µM, first compound 0.1 µM
[3] = second compound 0.0316 µM, first compound 0.316 µM
[4] = second compound 0.0316 µM, first compound 1 µM
[5] = second compound 0.0316 µM, first compound 3.16 µM
[6] = second compound 0.0316 µM, first compound 10 µM
[7] = second compound 0.1 µM, first compound 0.0316 µM
[8] = second compound 0.1 µM, first compound 0.1 µM
[9] = second compound 0.1 µM, first compound 0.316 µM
[10] = second compound 0.1 µM, first compound 1 µM
[11] = second compound 0.1 µM, first compound 3.16 µM
[12] = second compound 0.1 µM, first compound 10 µM
[13] = second compound 0.316 µM, first compound 0.0316 µM
[14] = second compound 0.316 µM, first compound 0.1 µM
[15] = second compound 0.316 µM, first compound 0.316 µM
[16] = second compound 0.316 µM, first compound 1 µM
[17] = second compound 0.316 µM, first compound 3.16 µM
[18] = second compound 0.316 µM, first compound 10 µM
[19] = second compound 1 µM, first compound 0.0316 µM
[20] = second compound 1 µM, first compound 0.1 µM
[21] = second compound 1 µM, first compound 0.316 µM
[22] = second compound 1 µM, first compound 1 µM
[23] = second compound 1 µM, first compound 3.16 µM
[24] = second compound 1 µM, first compound 10 µM
[25] = second compound 3.16 µM, first compound 0.0316 µM
[26] = second compound 3.16 µM, first compound 0.1 µM
[27] = second compound 3.16 µM, first compound 0.316 µM
[28] = second compound 3.16 µM, first compound 1 µM
[29] = second compound 3.16 µM, first compound 3.16 µM
[30] = second compound 3.16 µM, first compound 10 µM
[31] = second compound 10 µM, first compound 0.0316 µM
[32] = second compound 10 µM, first compound 0.1 µM
[33] = second compound 10 µM, first compound 0.316 µM
[34] = second compound 10 µM, first compound 1 µM
[35] = second compound 10 µM, first compound 3.16 µM
[36] = second compound 10 µM, first compound 10 µM
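Note: spheroids exposed to drugs for seven days before readout.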
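Throughout, for viability, T/C: percent viability relative to DMSO vehicle control taken as 100%.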

Nc1ccn(C2OC(CO)C(O)C2(F)F)c(=O)n1 (stereo unspecified) + Cc1cccc(N(C)C(=O)C2C(O)CCN2c2nc(C)cc(C(F)(F)F)c2C#N)c1
inactive: viability, T/C [1] 25.1% | viability, T/C [7] 21% | viability, T/C [8] 11.4% | viability, T/C [13] 25.4% | viability, T/C [14] 11.3% | viability, T/C [19] 17.7% | viability, T/C [25] 21.1% | viability, T/C [26] 10.5% | viability, T/C [31] 15.7% | viability, T/C [32] 10.8% | viability, T/C [33] 12.1% | viability, T/C [34] 11.4% | viability, T/C [35] 13.6% | viability, T/C [36] 11.1%
active: viability, T/C [2] 9.7% | viability, T/C [3] 7.84% | viability, T/C [4] 9.16% | viability, T/C [5] 9.02% | viability, T/C [6] 7.36% | viability, T/C [9] 10.4% | viability, T/C [10] 8.24% | viability, T/C [11] 9.14% | viability, T/C [12] 8.33% | viability, T/C [15] 7.36% | viability, T/C [16] 9.63% | viability, T/C [17] 9.1% | viability, T/C [18] 9.51% | viability, T/C [20] 8.64% | viability, T/C [21] 7.94% | viability, T/C [22] 9.54% | viability, T/C [23] 10.9% | viability, T/C [24] 9.2% | viability, T/C [27] 8.82% | viability, T/C [28] 9.94% | viability, T/C [29] 10.1% | viability, T/C [30] 9.91%
< 31.6 nM: IC50 (second compound 0.0316 µM) | IC50 (second compound 0.1 µM) | IC50 (second compound 0.316 µM) | IC50 (second compound 1 µM) | IC50 (second compound 3.16 µM) | IC50 (second compound 10 µM)

COc1cc2cc(C(=O)CCC(=O)O)sc2cc1OC + Cc1cccc(N(C)C(=O)C2C(O)CCN2c2nc(C)cc(C(F)(F)F)c2C#N)c1
inactive: viability, T/C [1] 90.8% | viability, T/C [2] 100% | viability, T/C [3] 86.1% | viability, T/C [4] 89.3% | viability, T/C [5] 89.2% | viability, T/C [6] 102% | viability, T/C [7] 96.3% | viability, T/C [8] 89.2% | viability, T/C [9] 85.3% | viability, T/C [10] 96.9% | viability, T/C [11] 105% | viability, T/C [12] 91.2% | viability, T/C [13] 102% | viability, T/C [14] 88.5% | viability, T/C [15] 85.2% | viability, T/C [16] 90.1% | viability, T/C [17] 85.8% | viability, T/C [18] 89% | viability, T/C [19] 88.5% | viability, T/C [20] 103% | viability, T/C [21] 96.3% | viability, T/C [22] 100% | viability, T/C [23] 102% | viability, T/C [24] 88.1% | viability, T/C [25] 101% | viability, T/C [26] 83.7% | viability, T/C [27] 103% | viability, T/C [28] 100% | viability, T/C [29] 87.7% | viability, T/C [30] 95.1% | viability, T/C [31] 94.5% | viability, T/C [32] 84.6% | viability, T/C [33] 89.7% | viability, T/C [34] 89.9% | viability, T/C [35] 103% | viability, T/C [36] 85.3%
> 10000 nM: IC50 (second compound 0.0316 µM) | IC50 (second compound 0.1 µM) | IC50 (second compound 0.316 µM) | IC50 (second compound 1 µM) | IC50 (second compound 3.16 µM) | IC50 (second compound 10 µM)

CC1COCCN1c1cc(C2(O)CC3CCC(C2)O3)c2cnn(-c3ccn[nH]3)c2n1 (stereo unspecified) + Nc1ccc(C#CCN(C(=O)Cc2ncc(C(F)(F)F)cc2C(F)(F)F)c2ccc(F)cc2)nn1
114 nM: IC50 (second compound 10 µM)
126 nM: IC50 (second compound 3.16 µM)
inactive: viability, T/C [1] 110% | viability, T/C [2] 59.9% | viability, T/C [3] 13.5% | viability, T/C [7] 92% | viability, T/C [8] 51.4% | viability, T/C [9] 16% | viability, T/C [13] 83.2% | viability, T/C [14] 56.6% | viability, T/C [15] 16.1% | viability, T/C [19] 86.9% | viability, T/C [20] 52.5% | viability, T/C [21] 16.4% | viability, T/C [25] 83% | viability, T/C [26] 59.3% | viability, T/C [27] 12.5% | viability, T/C [31] 82.8% | viability, T/C [32] 54.5% | viability, T/C [33] 18.5%
active: viability, T/C [4] 12.8% | viability, T/C [5] 11.2% | viability, T/C [6] 4.19% | viability, T/C [10] 14% | viability, T/C [11] 10.2% | viability, T/C [12] 3.29% | viability, T/C [16] 11.8% | viability, T/C [17] 10.4% | viability, T/C [18] 4.27% | viability, T/C [22] 13.6% | viability, T/C [23] 8.92% | viability, T/C [24] 3.67% | viability, T/C [28] 11.8% | viability, T/C [29] 9.65% | viability, T/C [30] 3.56% | viability, T/C [34] 14.6% | viability, T/C [35] 9.99% | viability, T/C [36] 3.04%
128 nM: IC50 (second compound 0.0316 µM)
104 nM: IC50 (second compound 0.1 µM)
121 nM: IC50 (second compound 0.316 µM)
107 nM: IC50 (second compound 1 µM)

Source: PubChem BioAssay AID1963848 (Molecular Pharmacology Branch, DTP, NCI, 2024)
